Data from publication PMC12520178, “Turn-engineering tunes the conformational rigidity of β-hairpin AMPs in achieving membrane selectivity and killing drug-resistant ESKAPE pathogens” (Chemical Science, 2025).
≈ marks a conversion by molar mass, not a printed value. Where a SMILES comes first, the peptide text is derived from it. [ ]: non-standard residue; d: D form. dNMeR = CN[C@H](CCCNC(=N)N)C(=O)O

Experiments:
[1] = system: polymyxin B-resistant A. baumannii; settings: induced polymyxin B-resistant A. baumannii
[2] = system: Klebsiella pneumoniae; assay type: cell-based
[3] = system: polymyxin B-resistant P. aeruginosa; settings: induced polymyxin B-resistant P. aeruginosa
[4] = system: Pseudomonas aeruginosa; assay type: cell-based
[5] = Rapid equilibrium dialysis (RED) plasma protein binding; settings: plasma spiked with 100 μM peptide, buffer pH 7.4, 37 °C, 4 h, HPLC
[6] = target: Proteinase K (Parengyodontium album, UniProt P06873); experiment: Proteolytic digestion with Proteinase K; assay type: in vitro ADME; settings: 100 µM peptide, 1X TBS pH 7.5, ratio 1:200, 37 °C, HPLC, 0 to 720 min
Sequence of Proteinase K (P06873 106-384): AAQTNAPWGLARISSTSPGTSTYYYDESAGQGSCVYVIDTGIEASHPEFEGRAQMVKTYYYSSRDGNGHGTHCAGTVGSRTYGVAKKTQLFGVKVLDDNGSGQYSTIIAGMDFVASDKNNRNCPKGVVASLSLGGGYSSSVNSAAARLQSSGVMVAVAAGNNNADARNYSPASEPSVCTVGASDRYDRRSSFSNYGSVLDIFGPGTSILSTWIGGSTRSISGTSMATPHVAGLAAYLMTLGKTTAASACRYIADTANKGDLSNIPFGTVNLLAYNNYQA
Protocol: Figure S15: Proteolytic degradation profiles of a. 4d and b. 4f after incubation with Proteinase K. The five overlaid chromatograms represent […] different time-points: 0 min, 2 min, 60 min, 480 min and 720 min. The identity of the peptide at different time points were monitored using MALDI-TO F.
Figure S16: a. PI uptake by A. baumannii and S. aureus, when treated with different concentrations of 4f for 10 min, monitored using flow-cytometry. b. SEM images of untreated control cells and 5 times of […]
Radial Distribution Function
The radial distribution function (g(r)) was computed to investigate the local density of specific lipid headgroups around key peptide residues. […]
The interaction energy between the peptide and membrane components was computed to quantify the binding affinity and identify the driving forces for the interaction. Using GROMACS, the production trajectories were re-analyzed by defining energy groups for the protein and different membrane components. […]
The metabolic stability of peptides (1,1d,1f and 3,3d,3f) were evaluated against two proteases-chymotrypsin and trypsin at a concentration of 100 µM. The metabolic stability of 4f was evaluated by incubating 100 µM of peptide with a more promiscuous enzyme i.e. Proteinase K. Peptides were incubated with different enzyme to peptide ratio for different time intervals at 37 ° C. […]

[7] = system: Escherichia coli; assay type: cell-based
[8] = system: Staphylococcus aureus; experiment: microbe, parasite or virus in culture; assay type: cell-based
[9] = system: Acinetobacter baumannii; assay type: cell-based
[10] = Acute in-vivo toxicity assessment; settings: mice
[11] = system: human red blood cells; settings: red cells of human
[12] = system: human peripheral blood mononuclear cells (PBMCs); settings: 24 h, 40

**Q.** For `CC[C@@H](C)[C@@H](NC(=O)[C@@H](CCCNC(=N)N)N(C)C(=O)[C@H](C)NC(=O)[C@@H](Cc1ccc(O)cc1)NC(=O)[C@H](NC(=O)[C@H](NC(=O)[C@@H](CCCNC(=N)N)NC(=O)[C@@H](Cc1ccccc1)NC(=O)[C@H](NC(=O)[C@@H](Cc1c[nH]c2ccccc12)NC(=O)[C@H](N)CCCCN)[C@H](C)O)C(C)C)[C@H](C)O)C(=O)N[C@@H](C(=O)N[C@H](Cc1ccc(O)cc1)C(=O)N[C@H](CCCNC(=N)N)C(=O)N[C@H](CCCNC(=N)N)C(=O)N[C@@H](C(=O)N[C@H](CCCNC(=N)N)C(N)=O)[C@H](C)O)[C@H](C)O` [4f] (H-[dK][dW][dT][dF][dR][dV][dT][dY]A[dNMeR][dI][dT][dY][dR][dR][dT][dR]-NH2), which MIC [1] is on record?
**A.** 1.6 µM (≈ 3.66 µg/mL)

**Q.** And the “MIC (μM) kp” value [2]?
**A.** 1.6 µM (≈ 3.66 µg/mL)

**Q.** What about the MIC [3] of the same compound?
**A.** 2.4 µM (≈ 5.49 µg/mL)

**Q.** What about the “MIC (μM) pa” value [4] of the same compound?
**A.** 1.2 µM (≈ 2.75 µg/mL)

**Q.** And the plasma protein binding [5]?
**A.** very high plasma protein binding

**Q.** What about the protection against proteolysis [6] of the same compound?
**A.** total protection against proteolysis

**Q.** And the “MIC90” value [7]?
**A.** 0.4 µM (≈ 0.915 µg/mL)

**Q.** What about the “MIC (μM) ec” value [7] of the same compound?
**A.** 0.4 µM (≈ 0.915 µg/mL)

**Q.** What about the “MIC (μM) sa” value [8] of the same compound?
**A.** 0.8 µM (≈ 1.83 µg/mL)

**Q.** And the “MIC (μM) ab” value [9]?
**A.** 1.6 µM (≈ 3.66 µg/mL)

**Q.** And the “signs of acute toxicity” value ([10]; 10 mg kg^−1, intraperitoneally, monitored till 72 h)?
**A.** no signs of toxicity

**Q.** What about the “signs of acute toxicity” value ([10]; 20 mg kg^−1, intraperitoneally, at 48 h, transient) of the same compound?
**A.** mild symptoms such as wrinkled skin and loss in body weight

**Q.** What about the “signs of acute toxicity” value ([10]; 40 mg kg^−1, intraperitoneally) of the same compound?
**A.** Visible signs of toxicity such as wrinkled skin, poor motility, and loss in body weight

**Q.** What about the mortality ([10]; 10, 20 and 40 mg kg^−1, intraperitoneally) of the same compound?
**A.** none of the doses led to mortality

**Q.** And the “MHC10 (μM), minimum hemolytic concentration” value [11]?
**A.** 50 µM

**Q.** What about the “median viability of PBMCs” value [12] of the same compound?
**A.** ~85%
